Among the test systems are A549 NSCLC; TK-10 renal; IGROV1 ovarian; OVCAR-5 ovarian; SF-539 CNS; UO-31 renal; SNB-19 CNS; EKVX NSCLC; CAKI-1 renal; HCC-2998 colon.
Holding throughout (test): DTP human tumour cell line panel, 48 h

Each structure is given as a SMILES string. Where “and” joins values, the source holds several entries; their conditions need not be identical. Equal values may be shown once.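 Five concentrations, 48 hours, 96-well plates. GI50 is the concentration that inhibits growth by half. TGI: concentration producing complete growth inhibition.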 Where only a bound is given, the exact number is not on record here.

What is called TGI is the concentration at which net growth stops. Higher therefore signals lower sensitivity of the cells. In general, GI50 refers to the concentration at which growth is held to half of that of the control.

Regarding `COc1cc2c3c(c1OC)/C(=N/OS(=O)(=O)c1ccc(C)cc1)CC3N(S(=O)(=O)c1ccc(C)cc1)CC2` (configuration not stated), the TGI with A549 NSCLC, in the assay on TK-10 renal, in the assay on IGROV1 ovarian, with OVCAR-5 ovarian, in the assay with SF-539 CNS and in the assay with UO-31 renal was over 100 µM throughout. For the same compound, the TGI with SNB-19 CNS, with EKVX NSCLC, in the assay with CAKI-1 renal and in the assay on HCC-2998 colon was over 100 µM in each case.
Turning to `CC(=O)Nc1ccc2c(c1)CN1C(=O)c3ccccc3C1=N2`, the GI50 in the assay with A549 NSCLC, in the assay with IGROV1 ovarian, in the assay on OVCAR-5 ovarian, with SF-539 CNS, in the assay with UO-31 renal and in the assay with SNB-19 CNS was over 100 µM in each case. In addition, the GI50 in the assay on EKVX NSCLC, in the assay on CAKI-1 renal and in the assay with HCC-2998 colon was over 100 µM in each case. For the same compound, the TGI in the assay on A549 NSCLC, in the assay with IGROV1 ovarian, in the assay on OVCAR-5 ovarian, in the assay with SF-539 CNS, in the assay with UO-31 renal and in the assay on SNB-19 CNS was over 100 µM throughout. The TGI with EKVX NSCLC, in the assay on CAKI-1 renal and in the assay on HCC-2998 colon was over 100 µM throughout.
In the case of `C(/C=C/N1CCCC1)=C\c1nc(N2CCCC2)c2ccccc2n1`, the TGI was over 100 µM in the assay with A549 NSCLC; over 100 µM in the assay on TK-10 renal; 39.6 µM in the assay on IGROV1 ovarian; 28.9 µM with OVCAR-5 ovarian; 32.8 µM with SF-539 CNS; 29.2 µM in the assay with UO-31 renal. Besides, the TGI amounted to 36.3 µM in the assay on SNB-19 CNS, 37.9 µM in the assay with EKVX NSCLC, 35.3 µM in the assay on CAKI-1 renal and 31.3 µM in the assay on HCC-2998 colon.
On to `Cc1cc(C(=O)Nc2cc(Nc3ncccc3-c3ncnc4nc[nH]c34)ccc2F)cc(C(C)(C)C#N)c1`, for which the GI50 in the assay with A549 NSCLC was 3.77 µM; in the assay on TK-10 renal, 4.07 µM; in the assay with IGROV1 ovarian, 0.694 µM; in the assay with OVCAR-5 ovarian, 0.211 µM; in the assay on SF-539 CNS it was 1.19 µM; in the assay on UO-31 renal, 0.239 µM. Moreover, the GI50 in the assay with SNB-19 CNS is 4.31 µM; with EKVX NSCLC it was 4.03 µM; with CAKI-1 renal, 0.951 µM; in the assay with HCC-2998 colon it was 0.415 µM. Besides, the TGI in the assay on A549 NSCLC is over 100 µM; in the assay on TK-10 renal, over 100 µM; in the assay with IGROV1 ovarian, over 100 µM; in the assay on OVCAR-5 ovarian, over 100 µM; with SF-539 CNS, over 63.8 µM; in the assay on UO-31 renal, over 100 µM. Moreover, the TGI in the assay with SNB-19 CNS is over 100 µM; with EKVX NSCLC, over 100 µM; in the assay on CAKI-1 renal, over 100 µM; with HCC-2998 colon, over 78.9 µM.
Regarding `Nc1ccc2c(SCC(=O)Nc3ccccc3-c3ccccc3NC(=O)CSc3c4ccccc4nc4cc(N)ccc34)c3ccccc3nc2c1`, the TGI is over 100 µM in the assay on A549 NSCLC; 75.3 µM in the assay on TK-10 renal; 83 µM in the assay on IGROV1 ovarian; over 100 µM in the assay on OVCAR-5 ovarian; 64.8 µM in the assay on SF-539 CNS; 58.4 µM with UO-31 renal. In addition, the TGI was 44.2 µM with SNB-19 CNS, over 100 µM in the assay with EKVX NSCLC, over 83.5 µM in the assay on CAKI-1 renal and 61.7 µM in the assay with HCC-2998 colon.
For the compound `CCCCCCCCCCCCCCCCCCNC(=O)[C@H]1CSC(c2ccc(F)c(OC)c2)N1` (some centres not stated), the GI50 with IGROV1 ovarian was 1.43 µM; with OVCAR-5 ovarian it was 1 µM; with SF-539 CNS, 1.77 µM; in the assay on UO-31 renal, 5.57 µM; with SNB-19 CNS, 0.996 µM; in the assay on EKVX NSCLC, 0.813 µM. Besides, the GI50 in the assay on CAKI-1 renal is 0.846 µM; in the assay on HCC-2998 colon, 1.05 µM. Moreover, the concentration for total growth inhibition (TGI) with IGROV1 ovarian is 5.05 µM; in the assay with OVCAR-5 ovarian, 1.91 µM; in the assay on SF-539 CNS it was 6.26 µM; in the assay on UO-31 renal it was over 50 µM; in the assay on SNB-19 CNS, 1.96 µM; in the assay on EKVX NSCLC, 1.6 µM. Further, the TGI was 1.58 µM in the assay on CAKI-1 renal and 1.94 µM in the assay with HCC-2998 colon.
As for `NCCNc1nc2ccccc2c2c(=O)c3cc(F)cc(Cl)c3sc12`, the GI50 in the assay on A549 NSCLC is 1.79 µM; in the assay with IGROV1 ovarian, 1.51 µM; in the assay with OVCAR-5 ovarian, 1.65 µM; with SF-539 CNS, 1.7 µM; in the assay on UO-31 renal, 1.22 µM; with EKVX NSCLC it was 1.6 µM. The results for the GI50 with CAKI-1 renal and in the assay with HCC-2998 colon were 1.41 µM and 1.75 µM, respectively. Moreover, the TGI came out at 3.72 µM in the assay on A549 NSCLC; 3.01 µM in the assay on IGROV1 ovarian; 3.1 µM in the assay on OVCAR-5 ovarian; 3.08 µM in the assay with SF-539 CNS; 2.49 µM in the assay with UO-31 renal; 3.13 µM in the assay with EKVX NSCLC. Also, the TGI worked out at 2.8 µM in the assay on CAKI-1 renal and 3.45 µM in the assay with HCC-2998 colon.
For the compound `O=C(NOC(=O)c1ccc([N+](=O)[O-])cc1)c1ccc(Cl)cc1`, the TGI in the assay with A549 NSCLC is over 100 µM; with IGROV1 ovarian, 59.4 µM; with OVCAR-5 ovarian, over 100 µM; with SF-539 CNS, over 100 µM; with UO-31 renal, over 100 µM; in the assay with SNB-19 CNS it was over 100 µM. The TGI with EKVX NSCLC, with CAKI-1 renal and in the assay with HCC-2998 colon was over 100 µM each time.
With `O=C1OC(c2ccc(Cl)c3ccccc23)c2ccccc21` (configuration not stated), the TGI in the assay on A549 NSCLC, in the assay on IGROV1 ovarian, in the assay on OVCAR-5 ovarian, in the assay with SF-539 CNS, with UO-31 renal and in the assay with SNB-19 CNS was over 100 µM in each case. For the same compound, the TGI with EKVX NSCLC, in the assay with CAKI-1 renal and in the assay with HCC-2998 colon was over 100 µM throughout.
For `C=C1C(=O)C23CC1CCC2C12CO[C@@]3(O)[C@@H](O)C1C(C)(C)C=CC2=O` (some centres not stated), the GI50 in the assay with A549 NSCLC is 16.3 µM; with TK-10 renal, 4.51 µM; in the assay with OVCAR-5 ovarian it was 25 µM; in the assay on SF-539 CNS, 4.43 µM; in the assay on UO-31 renal, 8.37 µM; in the assay on SNB-19 CNS, 20.4 µM. Also, the values for the GI50 with EKVX NSCLC and in the assay with HCC-2998 colon were 18.7 µM and 20.7 µM, respectively. Further, the TGI in the assay on A549 NSCLC is 7.63 µM and 34.3 µM; in the assay on TK-10 renal, 1.55 µM and 11.2 µM; in the assay on OVCAR-5 ovarian, 9.96 µM and 40.5 µM; with SF-539 CNS, 1.8 µM and 13.4 µM; with UO-31 renal, 4.2 µM and 20.4 µM; with EKVX NSCLC, 11.8 µM and 34.7 µM. Besides, the TGI with CAKI-1 renal turned out to be 4.13 µM.
For the compound `BrC(Br)([P+](c1ccccc1)(c1ccccc1)c1ccccc1)[P+](c1ccccc1)(c1ccccc1)c1ccccc1`, the TGI with A549 NSCLC is over 100 µM; in the assay with TK-10 renal it was over 100 µM; with IGROV1 ovarian it was 43.2 µM; in the assay with OVCAR-5 ovarian, 81.3 µM; in the assay with SF-539 CNS, 27.8 µM; in the assay on UO-31 renal, over 100 µM. Besides, the TGI in the assay with EKVX NSCLC came to 63 µM; in the assay on CAKI-1 renal, 39.5 µM; with HCC-2998 colon it was 31.8 µM.
